Earlier results in patent US20230241042A1, “USE OF PENEHYCLIDINE IN TREATMENT OR PREVENTION OF VISION-IMPAIRING EYE DISEASES” (GRAND LIFE SCIENCES GROUP (WUHAN) CO., LTD., priority 2020, published 2023).

Experiments:
[1] = tested on: chick modeled eyes with visual form deprivation myopia (FDM); details: day 8, 0.01% by mass injected into the vitreous cavity
FDM [2] = details: in vivo
FDM [3] = details: daily subconjunctival injection
experimental myopia = details: topical eye drops or oral administration

| Structure (SMILES) | prevention of FDM and retinal damage (FDM [2]) | inhibition of the occurrence of FDM (FDM [3]) | other results |
| --- | --- | --- | --- |
| CN1[C@@H]2CC[C@H]1C[C@@H](OC(=O)C(CO)c1ccccc1)C2 (stereo partly shown) [atropine] | certain effect in preventing FDM without retinal damage | – | induced myopia [1]: −2.8 D; ocular axis extension [1]: 0.21 mm |
| CN1CCN(CC(=O)N2c3ccccc3C(=O)Nc3cccnc32)CC1 [pirenzepine] | certain effect in preventing FDM without retinal damage | could inhibit the occurrence of FDM | – |
| COc1ccccc1CNCCCCCCNCCCCCCCCNCCCCCCNCc1ccccc1OC [methoctramine] | – | ineffective | – |
| C[C@@H]1OC(=O)[C@H]2C[C@H]3CCCC[C@@H]3[C@@H](/C=C/[C@H]3CCC[C@H](C)N3C)[C@@H]12 [Himbacine] | certain effect in preventing FDM without retinal damage | – | – |
| OC(CCN1CCCCC1)(c1ccccc1)C1CCCCC1 (stereo not shown) [trihexyphenidyl] | – | – | prevention of the progression of experimental myopia (experimental myopia): not effective in preventing the progression of experimental myopia |
| C[N+]1(C)CCC(OC(=O)C(c2ccccc2)c2ccccc2)CC1.[I-] [4-DAMP] | – | ineffective | – |
| CC[N+](C)(CC)CCOC(=O)C(O)(c1ccccc1)C1CCCCC1 (stereo not shown) [Oxypheneonium, Oxyphenonium] | certain effect in preventing FDM without retinal damage | – | – |
